In patent publication US7432276B2, “ABCA1 elevating compounds” (CV Therapeutics, Inc., priority 2005, dated 2008):

Test system: ABCA1 mRNA
Assay: ABCA1 mRNA induction in THP-1 cells, QuantiGene branched DNA assay
Format: cell-based
Conditions: 10 μM test compound, 18-20 hours
Description: Modulation of expression of ABCA1 mRNA levels by the compounds of the invention was determined in the following assays.
Induction of ABC1 in THP-1 cells, was measured using QuantiGene® branched DNA assay as per manufacturer's instructions. Cultures of THP-1 were grown to subconfluence in DMEM/10% FBS before replacement with DMEM/BSA and 10 and 3 μM concentrations of the test compounds in DMSO for 18-20 hours. After treatment of cells with compounds, the cells were lysed with lysis buffer at 37° C. for 20 minutes. The cell lysate and ABCA1 specific probe (Genospectra, Inc., Fremont, Calif.) mix were added to the 96 well capture plate and hybridized at 53° C. for 16-18 hours. The signal was amplified using the amplifier and label probes provided with the QuantiGene® assay followed by addition of a luminescent alkaline phosphatase substrate, dioxitane. Luminescence was quantified in Victor V plate reader.
Step 1 • Cells are lysed to release mRNA in the presence of target probes. Target mRNA from lysed cells was then captured by hybridization and transferred to the Capture Plate.
Step 2 • Signal amplification was performed by hybridization of the bDNA Amplifier and Label Probe.
Step 3 • Addition of chemiluminescence substrate yielded a QuantiGene® signal proportional to the amount of mRNA present in the sample.
Table 1 presents the relative fold increase in ABCA1 expression over DMSO for various compounds of the invention when tested at a concentration of […].

Compound	ABCA1 Induction Fold Increase over DMSO Vehicle [FOLD INCREASE]
CCOc1cccc2c1OCC1C2Nc2ccc(C(C)=O)cc2C1(C)C (centres unmarked) [Number 42, 1-(4-ethoxy-7,7-dimethyl-7,12,12a,6a-tetrahydrochromano[4,3-b]quinolin-9-yl)ethan-1-one]	3.8
CC(C)(C)OC(=O)N1CCN(C(=O)c2ccc3c(c2)C(C)(C)[C@H]2COc4cccc(F)c4[C@H]2N3)CC1 [Number 126, ((6aR,12aS)-6a,7,12,12a-tetrahydro-1-fluoro-7,7-dimethyl-6H-chromeno[4,3-b]quinolin-9-yl)(4-tert-butyl-carboxylate-piperazin-1-yl)methanone]	7.3
Cc1c(C(=O)N2CCS(=O)(=O)CC2)cnn1-c1ccc2c(c1)C(C)(C)[C@H]1COc3cccc(F)c3[C@H]1N2 [Number 145, 1-((6aR,12aS)-6a,7,12,12a-tetrahydro-1-fluoro-7,7-dimethyl-6H-chromeno[4,3-b]quinolin-9-yl)1-5-methyl-1H-pyrazole-4-((1,1-dione-1,4-thiazaperhydroin-yl)methanone)]	4.5
COc1cccc2c1C1Nc3ccc(C(N)=O)cc3C(C)(C)C1CO2 (centres unmarked) [Number 45, 1-methoxy-7,7-dimethyl-7,12,12a,6a-tetrahydrochromano[4,3-b]quinoline-9-carboxamide]	4.9
CCOc1ccc2c(c1)C(C)(C)C1COc3c(OC)ccc(Br)c3C1N2 (centres unmarked) [Number 78, 1-bromo-9-ethoxy-4-methoxy-7,7-dimethyl-7,12,12a,6a-tetrahydrochromano[4,3-b]quinoline]	2.7
Cc1cccc2c1OCC1C2Nc2ccc(C(O)(C(F)(F)F)C(F)(F)F)cc2C1(C)C (centres unmarked) [Number 18, 1,1,1,3,3,3-hexafluoro-2-(4,7,7-trimethyl(7,12,12a,6a-tetrahydrochromano[4,3-b]quinolin-9-yl))propan-2-ol]	5.3
COc1cccc2c1OC[C@H]1[C@@H]2Nc2ccc(C(=O)N3CCS(=O)(=O)CC3)cc2C1(C)C [Number 129, ((6aR,12aS)-6a,7,12,12a-tetrahydro-4-methoxy-7,7-dimethyl-6H-chromeno[4,3-b]quinolin-9-yl)(1,1-dione-1,4-thiazaperhydroin-yl)methanone]	4.3
COc1cccc2c1OCC1C2Nc2ccc(Br)cc2C1(C)C (centres unmarked) [Number 75, 9-bromo-4-methoxy-7,7-dimethyl-7,12,12a,6a-tetrahydrochromano[4,3-b]quinoline]	7.4
COc1cccc2c1OC[C@H]1[C@H]2Nc2ccc(CCC(=O)O)cc2C1(C)C [Number 28, 3-((12aR,6aR)-4-methoxy-7,7-dimethyl-7,12,12a,6a-tetrahydrochromano[4,3-b]quinolin-9-yl)propanoic acid]	1.9
COc1cccc2c1OC[C@@H]1[C@@H]2Nc2ccc(Br)cc2C1(C)C [Number 87, (12aS,6aS)-9-bromo-4-methoxy-7,7-dimethyl-7,12,12a,6a-tetrahydrochromano[4,3-b]quinoline]	7.4
COc1cccc2c1[C@H]1Nc3ccc(C(=O)N4CCS(=O)(=O)CC4)cc3C(C)(C)[C@H]1CO2 [Number 121, ((6aR,12aS)-6a,7,12,12a-tetrahydro-1-methoxy-7,7-dimethyl-6H-chromeno[4,3-b]quinolin-9-yl)(1,1-dione-1,4-thiazaperhydroin-yl)methanone]	3.2
COc1cccc2c1[C@H]1Nc3ccc(-c4csnn4)cc3C(C)(C)[C@H]1CO2 [Number 73, (12aS,6aR)-1-methoxy-7,7-dimethyl-9-(1,2,3-thiadiazol-4-yl)-7,12,12a,6a-tetrahydrochromano[4,3-b]quinoline]	8.0
COc1cccc2c1[C@H]1Nc3ccc(Br)cc3C(C)(C)[C@H]1CO2 [Number 85, (12aS,6aR)-9-bromo-1-methoxy-7,7-dimethyl-7,12,12a,6a-tetrahydrochromano[4,3-b]quinoline]	8.0
CCOC(=O)c1ccc(-c2ccc3c(c2)C(C)(C)[C@H]2COc4cccc(OC)c4[C@H]2N3)cc1 (relative stereo) [Number 107, ethyl 4-((12aS,6aR)-1-methoxy-7,7-dimethyl-7,12,12a,6a-tetrahydrochromano[4,3-b]quinolin-9-yl)benzoate]	2.9
CC1(C)c2cc(C(N)=O)ccc2NC2c3cccc(F)c3OCC21 (centres unmarked) [Number 50, 4-fluoro-7,7-dimethyl-7,12,12a,6a-tetrahydrochromano[4,3-b]quinoline-9-carboxamide]	5.0

Same assay, conditions: Homo sapiens, 10 μM test compound, 18-20 hours, read-out: ABCA1 Induction Fold Increase over DMSO Vehicle

Compound	fold induction at 10 µM
COc1cc(Br)cc2c1OC[C@@H]1[C@@H]2Nc2ccc(-c3nnn[nH]3)cc2C1(C)C [Number 169, (6aS,12aS)-2-bromo-6a,7,12,12a-tetrahydro-4-methoxy-7,7-dimethyl-9-(1H-tetrazol-5-yl)-6H-chromeno[4,3-b]quinoline]	9.7
CCCN1c2ccccc2C(C)(C)[C@@H]2COc3cccc(OC)c3[C@H]21 [Number 173, (6aS,12aS)-12-propyl-6a,7,12,12a-tetrahydro-1-methoxy-7,7-dimethyl-6H-chromeno[4,3-b]quinoline]	1.8
COc1cccc2c1[C@H]1Nc3ccc(C(=O)NCCO)cc3C(C)(C)[C@H]1CO2 [Number 117, (6aR,12aS)-6a,7,12,12a-tetrahydro-N-(2-hydroxyethyl)-1-methoxy-7,7-dimethyl-6H-chromeno[4,3-b]quinoline-9-carboxamide]	8.6
COc1cccc2c1[C@H]1Nc3ccc(-n4cc(C(=O)N(C)C)cn4)cc3C(C)(C)[C@H]1CO2 [Number 137, 1-((6aR,12aS)-6a,7,12,12a-tetrahydro-1-methoxy-7,7-dimethyl-6H-chromeno[4,3-b]quinolin-9-yl)-N,N-dimethyl-1H-pyrazole-4-carboxamide]	7
COc1cccc2c1[C@@H]1[C@@H](CO2)C(C)(C)c2ccccc2N1C1CCCCC1 [Number 167, (6aS,12aS)-12-cyclohexyl-6a,7,12,12a-tetrahydro-1-methoxy-7,7-dimethyl-6H-chromeno[4,3-b]quinoline]	7.9
CCS(=O)(=O)N1CCN(C(=O)c2ccc3c(c2)C(C)(C)[C@@H]2COc4c(OC)cccc4[C@H]2N3)CC1 [Number 133, ((6aS,12aS)-4-methoxy-6a,7,12,12a-tetrahydro-7,7-dimethyl-6H-chromeno[4,3-b]quinolin-9-yl)(4-ethanesulfonylpiperazin-1-yl)methanone]	3.8
COc1cc(-c2cn[nH]c2)cc2c1OC[C@H]1[C@@H]2Nc2ccc(-c3cnco3)cc2C1(C)C [Number 159, (6aR,12aS)-6a,7,12,12a-tetrahydro-4-methoxy-7,7-dimethyl-9-(oxazol-5-yl)-2-(1H-pyrazol-4-yl)-6H-chromeno[4,3-b]quinoline]	7.6
CCS(=O)(=O)N1CCN(C(=O)c2ccc3c(c2)C(C)(C)[C@H]2COc4cccc(OC)c4[C@H]2N3)CC1 [Number 132, ((6aR,12aS)-1-methoxy-6a,7,12,12a-tetrahydro-7,7-dimethyl-6H-chromeno[4,3-b]quinolin-9-yl)(4-ethanesulfonylpiperazin-1-yl)methanone]	4.3
COC(=O)c1ccc2c(c1)C(C)(C)[C@H]1COc3cccc(OC)c3[C@H]1N2C [Number 153, (6aR,12aS)-methyl 6a,7,12,12a-tetrahydro-1-methoxy-7,7,12-trimethyl-6H-chromeno[4,3-b]quinoline-9-carboxylate]	7.4
CCOP(=O)(Cc1ccc2c(c1)C(C)(C)[C@H]1COc3c(OC)cc(Br)cc3[C@H]1N2)OCC [Number 168, diethyl ((6aR,12aS)-2-bromo-6a,7,12,12a-tetrahydro-4-methoxy-7,7-dimethyl-6H-chromeno[4,3-b]quinolin-9-yl)methylphosphonate]	4
COc1cc(-c2c(C)noc2C)cc2c1OC[C@H]1[C@@H]2Nc2ccc(-c3cnco3)cc2C1(C)C [Number 165, (6aR,12aS)-6a,7,12,12a-tetrahydro-4-methoxy-7,7-dimethyl-2-(3,5-dimethylisoxazol-4-yl)-9-(oxazol-5-yl)-6H-chromeno[4,3-b]quinoline]	7.4
COc1cccc2c1[C@@H]1[C@H](CO2)C(C)(C)c2ccccc2N1CC(=O)O [Number 154, 2-((6aR,12aS)-6a,7-dihydro-1-methoxy-7,7-dimethyl-6H-chromeno[4,3-b]quinolin-12(12aH)-yl)acetic acid]	9.4
COc1ccc2c(c1)C(C)(C)[C@H]1COc3cccc(OC)c3[C@H]1N2Cc1ccccc1 [Number 158, (6aR,12aS)-12-benzyl-6a,7,12,12a-tetrahydro-1,9-dimethoxy-7,7-dimethyl-6H-chromeno[4,3-b]quinoline]	9.2
CCS(=O)(=O)N1CCN(C(=O)c2ccc3c(c2)C(C)(C)[C@@H]2COc4c(F)cccc4[C@H]2N3)CC1 [Number 139, ((6aS,12aS)-4-fluoro-6a,7,12,12a-tetrahydro-7,7-dimethyl-6H-chromeno[4,3-b]quinolin-9-yl)(4-ethanesulfonylpiperazin-1-yl)methanone]	2.8
